Legend:
[1] = Standard in vitro assays of immunosuppressivity in comparison to FK506 and rapamycin; type: cell-based
From the text: This can be shown in standard in vitro assays in comparison to FK506 and rapamycin. […] Nonimmunosuppressivity can also be shown in the in vivo models 1-7 above.

[2] = system: Balb/c spleen cells stimulated with irradiated CBA spleen cells; details: cited from earlier work
IL-2 transcription = details: IL-2 reporter gene assay; cited from earlier work
[3] = system: interleukin-6 (IL-6)-dependent mouse hybridoma cell line; details: cited from earlier work

| Compound | immunosuppressivity (in words) [1] | inhibition of the mixed lymphocyte reaction (in words) [2] | inhibition of IL-2 transcription (in words) (IL-2 transcription) | inhibition of IL-6 dependent T-cell proliferation (in words) [3] |
| --- | --- | --- | --- | --- |
| CO[C@H]1C[C@@H]2CC[C@@H](C)[C@@](O)(O2)C(=O)C(=O)N2CCCC[C@H]2C(=O)O[C@H]([C@H](C)C[C@@H]2CC[C@@H](O)[C@H](OC)C2)CC(=O)[C@H](C)/C=C(\C)[C@@H](OC)[C@@H](OC)C(=O)[C@H](C)C[C@H](C)/C=C/C=C/C=C/1C [Example 21, 28-O-Methyl-rapamycin] | not immunosuppressive |  |  |  |
| Rapamycin |  | very potent inhibitors | not active | strongly inhibits |
